Species on record: Rattus norvegicus
Experiment: Open TG-GATES - Regimen: Single
Assay type: toxicity, organism-based, Sprague-Dawley
Parameters: regimen Single, gender Male, age 6 weeks
Details: in vivo, po, route gavage; for gamma-GTP / ALP / ALT / AST / BUN / CRE / Ca / Cl / DBIL / GLC / IP / K / LDH / Na / PL / RALB / TBIL / TC / TG / TP: tissue Plasma
[1] = 300 mg/kg, 3 h, tissue Blood, dose level Middle
[2] = 300 mg/kg, 3 h, dose level Middle
[3] = 300 mg/kg, 6 h, tissue Blood, dose level Middle
[4] = 300 mg/kg, 6 h, dose level Middle
[5] = 300 mg/kg, 9 h, tissue Blood, dose level Middle
[6] = 300 mg/kg, 9 h, dose level Middle
[7] = 300 mg/kg, 24 h, tissue Blood, dose level Middle
[8] = 300 mg/kg, 24 h, dose level Middle

O=C(O)c1cccnc1 [NIACIN]
gamma-GTP (100 mg/kg, 24 h, dose level Low): 1 IU/L
Bas [1]: 0%
Eos [1]: 1%
Fbg [1]: 304.8 mg/dL
Hb [1]: 13.1 g/dL
Ht [1]: 39.9%
Lym [1]: 79.2%
MCHC [1]: 32.9%
MCV [1]: 64.5 fL
Mono [1]: 2.4%
Neu [1]: 16.2%
PT [1]: 16 s
Plat [1]: 118.4 x10_4/uL
RBC [1]: 620.8 x10_4/ul
Ret [1]: 8.5%
WBC [1]: 82.2 x10_2/uL
ALP [2]: 1554 IU/L
ALT [2]: 38.4 IU/L
AST [2]: 73 IU/L
BUN [2]: 13.2 mg/dL
CRE [2]: 0.2 mg/dL
Ca [2]: 10.8 mg/dL
Cl [2]: 105.6 meq/L
DBIL [2]: 0.002 mg/dL
GLC [2]: 179.4 mg/dL
IP [2]: 9.3 mg/dL
K [2]: 3.7 meq/L
LDH [2]: 184 IU/L
Na [2]: 140.2 meq/L
PL [2]: 120.6 mg/dL
RALB [2]: 3 g/dL
TBIL [2]: 0 mg/dL
TC [2]: 73.6 mg/dL
TG [2]: 28.8 mg/dL
TP [2]: 5.6 g/dL
gamma-GTP [2]: 1.2 IU/L
Bas [3]: 0%
Eos [3]: 0.8%
Fbg [3]: 329.8 mg/dL
Hb [3]: 13.6 g/dL
Ht [3]: 41.4%
Lym [3]: 73%
MCHC [3]: 32.9%
MCV [3]: 62.9 fL
Mono [3]: 2.4%
Neu [3]: 23%
PT [3]: 16.6 s
Plat [3]: 119.6 x10_4/uL
RBC [3]: 657.8 x10_4/ul
Ret [3]: 8.4%
WBC [3]: 82.7 x10_2/uL
ALP [4]: 1294 IU/L
ALT [4]: 40.2 IU/L
AST [4]: 71.4 IU/L
BUN [4]: 12.6 mg/dL
CRE [4]: 0.1 mg/dL
Ca [4]: 10.6 mg/dL
Cl [4]: 106.4 meq/L
DBIL [4]: 0.002 mg/dL
GLC [4]: 182.4 mg/dL
IP [4]: 9.6 mg/dL
K [4]: 3.7 meq/L
LDH [4]: 211.8 IU/L
Na [4]: 140.6 meq/L
PL [4]: 125.8 mg/dL
RALB [4]: 3 g/dL
TBIL [4]: 0.002 mg/dL
TC [4]: 76.2 mg/dL
TG [4]: 31 mg/dL
TP [4]: 5.6 g/dL
gamma-GTP [4]: 1.4 IU/L
APTT [5]: 22.4 s
Bas [5]: 0%
Eos [5]: 0.8%
Fbg [5]: 304.4 mg/dL
Hb [5]: 13.1 g/dL
Ht [5]: 39.5%
Lym [5]: 71.8%
MCHC [5]: 33.3%
MCV [5]: 62.6 fL
Mono [5]: 2.2%
Plat [5]: 114.7 x10_4/uL
RBC [5]: 631.4 x10_4/ul
Ret [5]: 8.5%
WBC [5]: 72.8 x10_2/uL
ALP [6]: 1319 IU/L
ALT [6]: 38.4 IU/L
AST [6]: 72.2 IU/L
CRE [6]: 0.2 mg/dL
Ca [6]: 10.9 mg/dL
Cl [6]: 105.2 meq/L
DBIL [6]: 0.006 mg/dL
GLC [6]: 176 mg/dL
IP [6]: 9.1 mg/dL
K [6]: 4.2 meq/L
LDH [6]: 169.8 IU/L
Na [6]: 140.8 meq/L
PL [6]: 124.8 mg/dL
RALB [6]: 2.8 g/dL
TBIL [6]: 0.004 mg/dL
TC [6]: 70.2 mg/dL
TG [6]: 50.4 mg/dL
TP [6]: 5.3 g/dL
gamma-GTP [6]: 1.6 IU/L
Bas [7]: 0%
Eos [7]: 1%
Fbg [7]: 343 mg/dL
Hb [7]: 13.7 g/dL
Ht [7]: 40%
Lym [7]: 78.4%
MCHC [7]: 34.2%
MCV [7]: 62.5 fL
Mono [7]: 2.6%
Neu [7]: 16.6%
PT [7]: 16 s
Plat [7]: 120.8 x10_4/uL
RBC [7]: 640 x10_4/ul
Ret [7]: 6.4%
WBC [7]: 98.1 x10_2/uL
ALP [8]: 1858 IU/L
AST [8]: 70.4 IU/L
BUN [8]: 14 mg/dL
CRE [8]: 0.1 mg/dL
Ca [8]: 10.7 mg/dL
Cl [8]: 104.4 meq/L
DBIL [8]: 0 mg/dL
GLC [8]: 192 mg/dL
IP [8]: 7.9 mg/dL
K [8]: 4.1 meq/L
LDH [8]: 172.2 IU/L
Na [8]: 139.8 meq/L
PL [8]: 156.8 mg/dL
RALB [8]: 3 g/dL
TBIL [8]: 0 mg/dL
TC [8]: 79.4 mg/dL
TG [8]: 134.4 mg/dL
TP [8]: 5.6 g/dL
gamma-GTP [8]: 1.4 IU/L
